Source: US20230146395A1, “Substituted Pyrimidines and Uses Thereof” (Verge Analytics, Inc., priority 2020, published 2023)
pIC50: −log10 of the molar value. Structures can show the parent of a compound that is named as a salt.

Tests used:
PI3Kγ = molecular target: T1, PI3Kγ (Homo sapiens, UniProt P48736); assay: Inhibition of PI3K isoforms: PI3Kγ (microfluidic electrophoresis kinase assay, PIP2/PS substrate); format: biochemical; details: p120γ, ATP 100 μM; read-out: PI3Kg IC50
T1 construct: Full length N-terminal; His (N); host or cells: SF9 cells (baculovirus)
Description: (§1) The kinase substrate was prepared by mixing and sonicating fluorescently-labeled phosphatidylinositol 4,5-phosphate (PIP2) with phospho-L-serine (PS) at 1:20 ratio in 50 mM HEPES buffer pH7.5.
(§2) The kinase reactions were assembled in 384-well plates (Greiner) in a total volume of […] as follows. The kinase proteins were pre-diluted in an assay buffer comprising 50 mM HEPES, pH 7.5, 0.012% CHAPS, 1 mM DTT, 10 mM Na3VaO4, 10 mM 3-GP, 3 mM MgCl2, and 40 mM NaCl2, and dispensed into a 384-well plate (10 μL per well). Test compounds were serially pre-diluted in DMSO and added to the protein samples by acoustic dispensing (Labcyte Echo). The concentration of DMSO was equalized to 1% in all samples. All test compounds were tested at 12 concentrations. […] Terminated plates were analyzed on a microfluidic electrophoresis instrument (Caliper LabChip® 3000, Caliper Life Sciences/Perkin Elmer). The change in the relative fluorescence intensity of the PI(4,5)P substrate and PI(3,4,5)P product peaks was measured. The activity in each test sample was determined as the product to sum ratio (PSR): P/(S+P), where P is the peak height of the product, and S is the peak height of the substrate. Percent inhibition (Pinh) was determined using the following equation: […]

PI3Kβ = molecular target: T2, PI3Kβ (Homo sapiens, UniProt P42338); assay: Inhibition of PI3K isoforms: PI3Kβ (microfluidic electrophoresis kinase assay, PIP2/PS substrate); format: biochemical; details: p110β/p85α, ATP 60 μM; read-out: PI3Kb IC50
T2 construct: Full-length N-terminal; GST (N); host or cells: SF9 cells (baculovirus)
Description: as §1, §2

T1 sequence (P48736 whole entry, canonical isoform): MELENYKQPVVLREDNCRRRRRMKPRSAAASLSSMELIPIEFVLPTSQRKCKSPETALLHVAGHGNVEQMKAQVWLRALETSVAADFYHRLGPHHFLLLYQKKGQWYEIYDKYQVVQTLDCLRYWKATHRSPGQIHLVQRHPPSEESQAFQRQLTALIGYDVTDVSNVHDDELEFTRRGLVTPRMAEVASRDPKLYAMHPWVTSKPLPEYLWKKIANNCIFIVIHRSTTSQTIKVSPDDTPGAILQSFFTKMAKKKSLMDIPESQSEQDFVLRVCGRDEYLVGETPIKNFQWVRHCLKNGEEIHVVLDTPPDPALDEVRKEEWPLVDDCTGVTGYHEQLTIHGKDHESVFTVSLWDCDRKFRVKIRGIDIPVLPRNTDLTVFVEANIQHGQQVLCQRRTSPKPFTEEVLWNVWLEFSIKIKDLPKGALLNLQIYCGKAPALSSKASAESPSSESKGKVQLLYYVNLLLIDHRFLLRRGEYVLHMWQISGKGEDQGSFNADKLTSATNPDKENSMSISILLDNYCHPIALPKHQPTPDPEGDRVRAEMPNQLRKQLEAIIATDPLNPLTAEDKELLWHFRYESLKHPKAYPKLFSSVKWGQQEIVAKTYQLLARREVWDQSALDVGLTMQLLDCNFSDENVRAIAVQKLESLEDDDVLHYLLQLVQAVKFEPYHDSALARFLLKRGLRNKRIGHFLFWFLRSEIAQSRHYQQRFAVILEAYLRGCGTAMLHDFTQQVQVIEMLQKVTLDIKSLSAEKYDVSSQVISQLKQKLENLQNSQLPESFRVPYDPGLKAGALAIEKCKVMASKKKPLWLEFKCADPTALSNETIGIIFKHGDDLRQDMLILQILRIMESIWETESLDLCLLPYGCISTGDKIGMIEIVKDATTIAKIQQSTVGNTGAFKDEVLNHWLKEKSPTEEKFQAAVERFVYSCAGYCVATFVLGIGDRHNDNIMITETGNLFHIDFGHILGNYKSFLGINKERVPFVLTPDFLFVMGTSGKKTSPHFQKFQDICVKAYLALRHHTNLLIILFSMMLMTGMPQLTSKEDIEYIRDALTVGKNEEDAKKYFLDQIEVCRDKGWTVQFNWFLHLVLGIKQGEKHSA
T2 sequence (P42338 whole entry, canonical isoform): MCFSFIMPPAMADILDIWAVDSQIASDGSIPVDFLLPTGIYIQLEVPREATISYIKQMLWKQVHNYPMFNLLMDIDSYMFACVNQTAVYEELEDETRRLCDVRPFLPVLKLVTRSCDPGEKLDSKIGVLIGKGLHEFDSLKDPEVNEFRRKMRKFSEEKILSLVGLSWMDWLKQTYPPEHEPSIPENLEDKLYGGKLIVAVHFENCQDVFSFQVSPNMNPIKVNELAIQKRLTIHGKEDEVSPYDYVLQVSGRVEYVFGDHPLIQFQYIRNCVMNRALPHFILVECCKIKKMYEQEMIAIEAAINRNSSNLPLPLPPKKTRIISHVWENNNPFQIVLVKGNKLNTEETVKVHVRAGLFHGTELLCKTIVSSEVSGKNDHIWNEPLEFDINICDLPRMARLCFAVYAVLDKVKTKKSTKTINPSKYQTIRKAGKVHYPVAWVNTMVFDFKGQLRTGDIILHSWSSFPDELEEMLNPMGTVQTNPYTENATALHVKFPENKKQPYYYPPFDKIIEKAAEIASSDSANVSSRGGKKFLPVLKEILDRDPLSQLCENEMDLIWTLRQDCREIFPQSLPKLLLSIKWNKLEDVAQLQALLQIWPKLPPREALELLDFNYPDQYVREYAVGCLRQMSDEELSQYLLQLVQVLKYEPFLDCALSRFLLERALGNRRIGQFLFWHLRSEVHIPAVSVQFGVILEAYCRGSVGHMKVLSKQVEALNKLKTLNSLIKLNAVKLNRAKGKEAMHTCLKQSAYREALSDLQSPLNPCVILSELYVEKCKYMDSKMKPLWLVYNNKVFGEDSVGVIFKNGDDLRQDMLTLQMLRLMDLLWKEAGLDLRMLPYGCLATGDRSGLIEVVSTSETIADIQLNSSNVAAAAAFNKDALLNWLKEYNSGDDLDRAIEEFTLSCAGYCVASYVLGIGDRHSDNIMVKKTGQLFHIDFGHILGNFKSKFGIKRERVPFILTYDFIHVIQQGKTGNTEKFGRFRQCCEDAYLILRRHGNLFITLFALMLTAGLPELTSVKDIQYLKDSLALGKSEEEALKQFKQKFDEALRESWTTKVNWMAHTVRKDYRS
T2 sequence (P27986 whole entry partner, canonical isoform): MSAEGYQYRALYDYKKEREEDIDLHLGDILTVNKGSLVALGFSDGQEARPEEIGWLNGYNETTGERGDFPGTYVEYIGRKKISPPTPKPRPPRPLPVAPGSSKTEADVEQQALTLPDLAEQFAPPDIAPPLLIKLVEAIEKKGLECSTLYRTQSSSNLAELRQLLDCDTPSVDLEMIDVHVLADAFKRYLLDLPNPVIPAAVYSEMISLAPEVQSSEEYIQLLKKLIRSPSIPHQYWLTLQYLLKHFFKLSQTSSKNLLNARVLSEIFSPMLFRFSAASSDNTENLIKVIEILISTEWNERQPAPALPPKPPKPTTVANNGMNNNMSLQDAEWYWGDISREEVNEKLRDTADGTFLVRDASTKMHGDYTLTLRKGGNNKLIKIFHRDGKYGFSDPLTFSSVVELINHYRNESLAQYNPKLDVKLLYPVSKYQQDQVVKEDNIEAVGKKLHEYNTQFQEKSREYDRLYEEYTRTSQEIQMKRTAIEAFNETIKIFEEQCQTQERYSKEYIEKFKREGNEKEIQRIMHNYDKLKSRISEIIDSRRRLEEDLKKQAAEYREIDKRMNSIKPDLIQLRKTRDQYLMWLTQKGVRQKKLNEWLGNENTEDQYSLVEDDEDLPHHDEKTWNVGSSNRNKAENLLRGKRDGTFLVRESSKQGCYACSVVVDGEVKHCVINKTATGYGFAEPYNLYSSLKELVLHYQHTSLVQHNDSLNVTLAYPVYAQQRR

pIC50 (PI3Kγ): < 5.00 | pIC50 (PI3Kβ): < 5.00
Compound: c1ccc(-c2cc(Nc3nc(N4CCOCC4)c4oc(-c5ccncc5)cc4n3)[nH]n2)cc1 [Compound 1, 4-morpholino-N-(3-phenyl-1H-pyrazol-5-yl)-6-(pyridin-4-yl)furo[3,2-d]pyrimidin-2-amine hydrochloride]
